Paper PMC11901561, “Free Radical Scavenging Activity and Inhibition of Enzyme-Catalyzed Oxidation by trans-aryl-Palladium Complexes” (Molecules, 2025)
Read-outs that look alike come from different tables or passages of the source.

Assays:
[1] = ABTS radical scavenging test (spectrophotometric, 734 nm); conditions: for Radical scavenging activity against ABTS•+: inhibition curve did not converge, EC50 could not be calculated
Method: (§1) Radical scavenging capacity, as an indicator of the antioxidant capacity of compounds against 1,1-diphenyl-2-picrylhydrazyl (DPPH) free radicals and 2,2-azinobis (3-ethyl- enzothiazoline-6-sulfonic acid), ABTS•+ radical cations, was determined using a spectrophotometric assay. Antiradical capacity analysis was performed either on pure MeOH for ABTS or the mixture of MeOH/distilled water (90:10 v/v) for DPPH. For both ABTS and DPPH assays, the stock solutions of complexes were prepared in DMSO. Quercetin was used as an antioxidant standard in the DPPH and ABTS•+ scavenging tests. EC50 is defined as the concentration of compound (µM) required to scavenge 50% of ABTS•+ or DPPH radicals. EC50 values were estimated using nonlinear regression. A lower EC50 value indicates higher antiradical activity.
The ABTS assay was based on the method described by Re et al.. For the generation of ABTS•+ radicals, sodium persulfate (2.45 mM) aqueous solution was mixed with ABTS (7 mM) and incubated overnight in the dark to obtain a dark colored solution. The stock solution of ABTS•+ was then diluted by adding pure methanol (100%) to obtain an absorbance of 0.70 (±0.02) at 734 nm at 30 °C. An aliquot of 0.02 mL of tested compound was added to 1.98 mL of ABTS•+, and the decrease in absorbance was monitored at 734 nm after 30 min [80]. During this reaction, the blue green ABTS radical cation is converted back into its colorless neutral form in the presence of the potential antioxidant molecule. A control consisted of 0.02 mL of DMSO in 1.98 mL of ABTS•+ solution. The reducing capacity was determined according to the following formula:% inhibition = (A control − A Sample) × 100/A Control (1)
(§2) Results were expressed as mean values ± standard deviation (SD). All measurements were replicated three times. EC50 values were calculated with GraphPad Prism 6.0 (GraphPad Software, San Diego, CA, USA) under the application of the function “log (inhibitor) versus normalized response-variable slope” after converting the concentrations into their decimal logarithm. The results were analyzed using Student’s test and a two-way analysis of variance (ANOVA), and a multiple comparison of all data was performed using Tukey’s multiple comparisons test. p < 0.0001 was considered significant.

[2] = DPPH radical scavenging test (spectrophotometric, 517 nm); conditions: for EC50: concentration scavenging 50% of DPPH, 90% MeOH, 30 min, mean ± SD; for EC50 (g Antioxidant/kg DPPH°): EC50 expressed as weight of antioxidant per kg of DPPH radical
Method: as §1, with “EC50 is defined as the concentration of compound (µM) required to scavenge 50% of ABTS•+ or DPPH radicals.” left out
The DPPH assay was performed according to the method developed by Brand-Williams et al. slightly modified. A solution of 1 mM DPPH in 90% (v/v) methanol was stirred for 40 min. The absorbance of the solution was adjusted to 0.650 ± 0.020 at 517 nm using fresh 90% (v/v) methanol. Then, 0.02 mL of quercetin taken as a standard or sample was mixed with 1.98 mL of DPPH solution and incubated for 30 min in the dark covered with aluminum foil. When reacting with an antioxidant, the DPPH• radical is converted into DPPH, and its color changes from purple to yellow. The antioxidant effect may be easily evaluated by observing the decrease in visible absorption. The absorbance decrease was monitored at 517 nm after 30 min of incubation with a Hewlett Packard 8453 spectrophotometer. The control consisted of 0.02 mL of DMSO in 1.98 mL of DPPH solution. A similar formula (Equation (1)) was applied to determine the DPPH radical scavenging activity.
as §2

[3] = Antiradical efficiency (kinetic study via DPPH assay); conditions: for AE (antiradical efficiency): AE = 1/EC50.TEC50, DPPH; for Classification of antiradical efficiency: according to Sanchez-Moreno, from AE value; for TEC50: time needed to reach the steady state at the EC50 concentration, DPPH
Method: The reaction between potential antioxidants and the oxidized substrate requires a steady state which will depend on several parameters, such as the reaction time. The time needed to reach the steady state, at the concentration corresponding to EC50, is more and more frequently used and can be defined as TEC50. In brief, TEC50 was determined by plotting the recorded absorbance during the period for the EC50 concentration for the considered antioxidant compound. […] The antiradical efficiency of compounds and their classification are considered according to the work of Sanchez-Moreno [69].

[4] = target: T1, horseradish peroxidase (HRP) (Armoracia rusticana, UniProt P00433); assay: biochemical; format: biochemical; conditions: for EC50: HRP-H2O2/L-012 system, pH 7.5, 37 °C, 30 min, read-out: EC50 chemiluminescence assay; for Effect on chemiluminescence at lowest concentrations: 1, 5, and 10 µM, HRP-H2O2/L-012
T1 sequence (P00433 31-338 limits assumed): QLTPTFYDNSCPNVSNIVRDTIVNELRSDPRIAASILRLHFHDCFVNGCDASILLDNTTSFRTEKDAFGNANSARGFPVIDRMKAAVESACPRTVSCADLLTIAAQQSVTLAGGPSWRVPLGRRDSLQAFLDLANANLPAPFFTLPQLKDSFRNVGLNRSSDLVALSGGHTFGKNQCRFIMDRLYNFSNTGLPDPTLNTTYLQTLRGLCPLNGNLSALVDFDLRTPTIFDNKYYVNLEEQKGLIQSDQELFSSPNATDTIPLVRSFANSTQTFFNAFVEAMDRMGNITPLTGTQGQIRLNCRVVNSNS
Method: To investigate the effect of selected palladium (II)-based complexes on the peroxidase (HRP)-catalyzed oxidation of the chemiluminescent probe (L-012), in the presence of hydrogen peroxide (H2O2), the chemiluminescence technique was used. Briefly, plate-reader-based luminescence measurements were performed in white 96-well plates using a Fluoroskan Ascent FL microplate reader (Thermo Labsystems, Vantaa, Finland), with the temperature set at 37 °C. To 5 µL of a stock solution of HRP (1 mg/mL) in phosphate buffer (pH = 7.5) per well, we successively added 10 µL of L-012 (aqueous solution, 0.84 mmoL) and 2 µL of tested compound in 163 µL of buffer solution. The reaction was triggered by adding 20 µL hydrogen peroxide (0.19 µM) to reach the final volume of 200 µL. The light emission, produced from oxidation of L-012 by HRP/H2O2 system, in the presence or absence of the tested palladium complex, was recorded in kinetic mode for 30 min. Inhibition of the emitted light due to tested complexes was associated with higher activity. The following formula was applied to calculate the inhibiting activity of complexes towards the oxidation of L-012 catalyzed by the HRP/H2O2 system:% inhibition = (L control − L Sample) x 100/L Control
as §2

[5] = flavonoid comparison ref 63; read-out: IC50 DPPH, literature value; cited from earlier work
[6] = concentration scavenging 50% of ABTS•+, MeOH, 30 min, mean ± SD

COc1cc[c]([Pd@SP2]([Br])([PH](c2ccccc2)(c2ccccc2)c2ccccc2)[PH](c2ccccc2)(c2ccccc2)c2ccccc2)cc1 [Complex 2, Trans-Bromo(4-methoxyphenyl)bis(triphenylphosphine)Palladium]
EC50 [1, 6]: 0.00701 ± 0.00098 mM
EC50 [2]: 7.09 ± 0.94 µM
AE (antiradical efficiency) [3]: 0.2155 ×10^−3
Classification of antiradical efficiency [3]: Low
TEC50 [3]: 16 min
EC50 [4]: 1.48 ± 0.71 µM

CC(=O)Oc1cc[c]([Pd@SP2]([Br])([PH](c2ccccc2)(c2ccccc2)c2ccccc2)[PH](c2ccccc2)(c2ccccc2)c2ccccc2)cc1 [Complex 5, Trans-Bromo(4-acethoxyphenyl)bis(triphenylphosphine)Palladium]
EC50 [1, 6]: 0.1358 ± 0.00025 mM
EC50 ([1]; value given in text in mM): 0.135 mM
EC50 (g Antioxidant/kg DPPH°) [2]: 653.57 ± 20 g Antioxidant/kg DPPH°
EC50 [2]: 15.5 ± 0.96 µM
AE (antiradical efficiency) [3]: 0.0264 ×10^−3
Classification of antiradical efficiency [3]: Low
TEC50 [3]: 58 min
EC50 [4]: 5.28 ± 2.3 µM

CC(=O)Oc1cc[c]([Pd@SP2]([I])([PH](c2ccccc2)(c2ccccc2)c2ccccc2)[PH](c2ccccc2)(c2ccccc2)c2ccccc2)cc1 [Complex 4, Trans-Iodo(4-acethoxyphenyl)bis(triphenylphosphine)Palladium]
EC50 [1, 6]: 0.0109 ± 0.00095 mM
EC50 (g Antioxidant/kg DPPH°) [2]: 82,194.89 ± 33 g Antioxidant/kg DPPH°
EC50 [2]: 1840.8 ± 0.44 µM
IC50 ([2]; value given in text in mM): 1.84 mM
AE (antiradical efficiency) [3]: 0.0002 ×10^−3
Classification of antiradical efficiency [3]: Low
TEC50 [3]: 78 min
Effect on chemiluminescence at lowest concentrations [4]: weak effect
EC50 [4]: 11.3 ± 3.3 µM

Oc1cc(O)c2c(c1)O[C@H](c1ccc(O)c(O)c1)[C@H](O)C2 [epicatechin]
IC50 [5]: 15.7 µM

[Cl][Pd@SP2]([c]1ccccc1)([PH](c1ccccc1)(c1ccccc1)c1ccccc1)[PH](c1ccccc1)(c1ccccc1)c1ccccc1 [Complex 9, Trans-Chloro(phenyl)bis(triphenylphosphine)Palladium]
EC50 [1, 6]: 0.0103 ± 0.00064 mM
EC50 (g Antioxidant/kg DPPH°) [2]: 271.97 ± 36 g Antioxidant/kg DPPH°
EC50 [2]: 7.33 ± 0.97 µM
AE (antiradical efficiency) [3]: 0.1019 ×10^−3
Classification of antiradical efficiency [3]: Low
TEC50 [3]: 36 min
Effect on chemiluminescence at lowest concentrations [4]: weak effect
EC50 [4]: 39.2 ± 17 µM

[I][Pd]([c]1ccccc1)([PH](c1ccccc1)(c1ccccc1)c1ccccc1)[PH](c1ccccc1)(c1ccccc1)c1ccccc1 [Complex 7, Trans-Iodo(phenyl)bis(triphenylphosphine)Palladium]
Activity against the ABTS radical ([1]; 100 µM): good activity
EC50 [1, 6]: 0.00614 ± 0.00094 mM
EC50 (g Antioxidant/kg DPPH°) [2]: 1882.11 ± 37 g Antioxidant/kg DPPH°
EC50 [2]: 45.1 ± 0.95 µM
AE (antiradical efficiency) [3]: 0.0081 ×10^−3
Classification of antiradical efficiency [3]: Low
TEC50 [3]: 66 min
Effect on chemiluminescence at lowest concentrations [4]: weak effect
EC50 [4]: 67 ± 20.1 µM

[Br][Pd@SP2]([c]1ccccc1)([PH](c1ccccc1)(c1ccccc1)c1ccccc1)[PH](c1ccccc1)(c1ccccc1)c1ccccc1 [Complex 8, Trans-Bromo(phenyl)bis(triphenylphosphine)Palladium]
EC50 [1, 6]: 0.0143 ± 0.00092 mM
Activity against the DPPH radical ([2]; 100 µM): good activity
EC50 (g Antioxidant/kg DPPH°) [2]: 260.96 ± 40 g Antioxidant/kg DPPH°
EC50 [2]: 6.64 ± 0.91 µM
AE (antiradical efficiency) [3]: 0.0955 ×10^−3
Classification of antiradical efficiency [3]: Low
TEC50 [3]: 40 min
Effect on chemiluminescence at lowest concentrations [4]: weak effect
EC50 [4]: 33.3 ± 11.7 µM

N.N.[Cl][Pt][Cl] [CisPt, Cisplatin, reference compound]
Radical scavenging activity against ABTS•+ [1]: no antioxidant activity
Radical scavenging activity against ABTS•+ ([1]; listed as Cisplatin (CisPt)): does not show any radical scavenging activity
Radical scavenging activity against DPPH ([2]; inhibition curve did not converge, EC50 could not be calculated): no antioxidant activity

COc1cc[c]([Pd@SP2]([I])([PH](c2ccccc2)(c2ccccc2)c2ccccc2)[PH](c2ccccc2)(c2ccccc2)c2ccccc2)cc1 [Complex 1, Trans-Iodo(4-methoxyphenyl)bis(triphenylphosphine)Palladium]
EC50 [1, 6]: 0.00578 ± 0.00098 mM
EC50 (g Antioxidant/kg DPPH°) [2]: 49.31 ± 39 g Antioxidant/kg DPPH°
EC50 [2]: 1.14 ± 0.9 µM
AE (antiradical efficiency) [3]: 1.8437 ×10^−3
TEC50 [3]: 11 min
EC50 [4]: 3.56 ± 1.87 µM

COc1cc[c]([Pd@SP2]([Cl])([PH](c2ccccc2)(c2ccccc2)c2ccccc2)[PH](c2ccccc2)(c2ccccc2)c2ccccc2)cc1 [Complex 3, Trans-Chloro(4-methoxyphenyl) bis(triphenylphosphine)Palladium]
EC50 [1, 6]: 0.0111 ± 0.00094 mM
EC50 (g Antioxidant/kg DPPH°) [2]: 73.49 ± 38 g Antioxidant/kg DPPH°
EC50 [2]: 1.9 ± 0.87 µM
AE (antiradical efficiency) [3]: 0.2160 ×10^−3
Classification of antiradical efficiency [3]: Low
EC50 [4]: 5.8 ± 2.6 µM

CC(=O)Oc1cc[c]([Pd@SP2]([Cl])([PH](c2ccccc2)(c2ccccc2)c2ccccc2)[PH](c2ccccc2)(c2ccccc2)c2ccccc2)cc1 [Complex 6, Trans-Chloro(4-acethoxyphenyl)bis(triphenylphosphine)Palladium]
EC50 [1, 6]: 0.0458 ± 0.00095 mM
EC50 (g Antioxidant/kg DPPH°) [2]: 573.94 ± 40 g Antioxidant/kg DPPH°
EC50 [2]: 14.3 ± 0.92 µM
AE (antiradical efficiency) [3]: 0.0328 ×10^−3
Classification of antiradical efficiency [3]: Low
TEC50 [3]: 53 min
EC50 [4]: 6.46 ± 2.28 µM
